Experimental data as given in paper PMC9762412 (SLAS discovery : advancing life sciences R & D, 2022).
Entries after “also recorded” stand apart in the source; their conditions may differ.

Key:
[1] = system: VTA dopamine neurons, NMDAR EPSCs; assay: Electrophysiology, NMDAR EPSCs of VTA dopamine neurons in slices; design: species or system mouse; conditions: CRF 1 μM, VTA-DA neurons, male and female mice
[2] = system: CRF1+ neurons in the central nucleus of the amygdala (CeA); assay: Electrophysiology, mIPSCs of CRF1+ neurons in CeA slices; design: species or system mouse

## CC[C@H](C)[C@H](NC(=O)[C@@H](NC(=O)[C@H](CCC(=O)O)NC(=O)[C@H](CCSC)NC(=O)[C@H](CC(C)C)NC(=O)[C@H](CCCCN)NC(=O)[C@H](CCCNC(=N)N)NC(=O)[C@H](CC(N)=O)NC(=O)[C@H](CO)NC(=O)[C@H](Cc1c[nH]cn1)NC(=O)[C@H](C)NC(=O)[C@H](CCC(N)=O)NC(=O)[C@H](CCC(N)=O)NC(=O)[C@H](C)NC(=O)[C@H](CC(C)C)NC(=O)[C@H](CCC(N)=O)NC(=O)[C@H](CCC(=O)O)NC(=O)[C@H](C)NC(=O)[C@H](CCCNC(=N)N)NC(=O)[C@H](C)NC(=O)[C@H](CCSC)NC(=O)[C@H](CCC(=O)O)NC(=O)[C@H](CC(C)C)NC(=O)[C@@H](NC(=O)[C@H](CCC(=O)O)NC(=O)[C@H](CCCNC(=N)N)NC(=O)[C@H](CC(C)C)NC(=O)[C@H](CC(C)C)NC(=O)[C@H](Cc1c[nH]cn1)NC(=O)[C@H](Cc1ccccc1)NC(=O)[C@@H](NC(=O)[C@H](CC(C)C)NC(=O)[C@H](CC(=O)O)NC(=O)[C@H](CC(C)C)NC(=O)[C@H](CO)NC(=O)[C@@H](NC(=O)[C@@H]1CCCN1C(=O)[C@@H]1CCCN1C(=O)[C@H](CCC(=O)O)NC(=O)[C@H](CCC(=O)O)NC(=O)[C@@H](N)CO)[C@@H](C)CC)[C@@H](C)O)C(C)C)[C@@H](C)CC)C(N)=O [CRF, corticotropin releasing factor]
[1]
  Effect of CRF on NMDA receptor EPSCs: potentiated
[2]
  Change in mIPSC properties by CRF after pre-treatment: did not induce changes; also recorded: do not produce significant changes
